Measured values: patent US20140262858A1, “PACKAGING FOR ALITRETINOIN” (RANBAXY LABORATORIES LIMITED, priority 2011, published 2014)
Several values for one entry are separate records, joined by “and”; a condition that tells them apart may be missing. Equal entries are not always repeated.

Key:
[1] = in the presence of oxygen; cited from earlier work
[2] = Stability study of alitretinoin at 25±2° C./60±5% RH in vacuum-sealed pack in the presence of oxygen absorber (Stabilox) and silica gel desiccant; format: physicochemical; design: 4-Hydroxy alitretinoin impurity / 5,6-Epoxy alitretinoin impurity / Total related substances / 4-Oxo-alitretinoin impurity: unit not given here; conditions: for 4-Hydroxy alitretinoin impurity / 4-Oxo-alitretinoin impurity / 5,6-Epoxy alitretinoin impurity / Total related substances: with oxygen absorber and silica gel desiccant
Experimental: (§1) Stability studies of alitretinoin were conducted by loading alitretinoin samples at various stability conditions, for example, at 25±2° C./60±5% relative humidity (RH) and 40±2° C./75±5% RH in the absence or presence of an oxygen absorber and a silica desiccant for 1 month, 2 months, 3 months, or 6 months. The stability studies were performed on a stability incubator (for accelerated stability studies, Hotpack was used and for real time stability studies, NuAire® was used). The degradation products were identified using an Agilent® 1100 series HPLC system.
Alitretinoin was packed in a LDPE bag. The bag was twisted and tied with a plastic fastener under nitrogen. The LDPE bag was placed into a middle bag of polyester/LDPE along with an oxygen absorber. A vacuum was applied to the middle bag and then it was heat sealed. The sealed middle bag was packed into a polyester/aluminum/polyester/LDPE bag along with silica gel as a desiccant. Vacuum was applied to this bag and it was then heat sealed. The vacuum-sealed pack was loaded on stability at 25±2° C. and 60±5% RH.

[3] = Stability study of alitretinoin at 40±2° C./75±5% RH in vacuum-sealed pack in the presence of oxygen absorber (Stabilox) and silica gel desiccant; format: physicochemical; design: 4-Hydroxy alitretinoin impurity / 5,6-Epoxy alitretinoin impurity / Total related substances / 4-Oxo-alitretinoin impurity: unit not given here; conditions: for 4-Oxo-alitretinoin impurity / 5,6-Epoxy alitretinoin impurity / Total related substances / 4-Hydroxy alitretinoin impurity: with oxygen absorber and silica gel desiccant
Experimental: as §1
Alitretinoin was packed in a LDPE bag; the bag was twisted and tied with a plastic fastener under nitrogen. It was placed into a middle bag of polyester/LDPE along with an oxygen absorber. Vacuum was applied to the middle bag and then it was heat sealed. This sealed middle bag was packed into a polyester/aluminum/polyester/LDPE bag along with silica gel as a desiccant. Vacuum was applied to this bag and then it was heat sealed. The vacuum-sealed pack was loaded on stability at 40±2° C. and 75±5% RH.

[4] = Stability study of alitretinoin in vacuum-sealed pack in the absence of oxygen absorber and silica gel desiccant (HPLC impurities); format: physicochemical; conditions: Initial; no oxygen absorber, no silica gel desiccant
Experimental: as §1
Alitretinoin was packed in a LDPE bag. The bag was twisted and tied with a plastic fastener under nitrogen. The LDPE bag was placed into a middle bag of polyester/LDPE and vacuum was applied to the middle bag and then it was heat sealed. The sealed middle bag was packed into a polyester/aluminum/polyester/LDPE bag. Vacuum was applied to this bag and then it was heat sealed. The vacuum-sealed pack was loaded on stability at stations 40±2° C. and 75±5% RH (accelerated) and 25±2° C. and 60±5% RH.

4-Hydroxy alitretinoin impurity ([2]; 3M/25 ± 2° C./60 ± 5% RH): 0.003
4-Oxo-alitretinoin impurity ([2]; 3M/25 ± 2° C./60 ± 5% RH): 0.003 and 0.002
5,6-Epoxy alitretinoin impurity ([2]; 3M/25 ± 2° C./60 ± 5% RH): 0.008 and 0.005
Total related substances ([2]; 3M/25 ± 2° C./60 ± 5% RH): 0.198 and 0.195 and 0.179
4-Hydroxy alitretinoin impurity ([2]; 6M/25 ± 2° C./60 ± 5% RH): 0.002 and 0.003
4-Oxo-alitretinoin impurity ([2]; 6M/25 ± 2° C./60 ± 5% RH): 0.004 and 0.003
5,6-Epoxy alitretinoin impurity ([2]; 6M/25 ± 2° C./60 ± 5% RH): 0.006 and 0.008 and 0.005
Total related substances ([2]; 6M/25 ± 2° C./60 ± 5% RH): 0.183 and 0.193 and 0.167
Change in oxidative impurities on storage ([2]; 25±2° C./60±5% RH (Table 2), in the presence of an oxygen absorber and a silica gel desiccant): no increase in oxidative impurities
4-Hydroxy alitretinoin impurity ([2]; Initial): 0.002
4-Oxo-alitretinoin impurity ([2]; Initial): 0.002 and 0.003
5,6-Epoxy alitretinoin impurity ([2]; Initial): 0.006 and 0.009
Total related substances ([2]; Initial): 0.165 and 0.189 and 0.173
4-Oxo-alitretinoin impurity ([3]; 1M/40 ± 2° C./75 ± 5% RH): 0.004 and 0.003
5,6-Epoxy alitretinoin impurity ([3]; 1M/40 ± 2° C./75 ± 5% RH): 0.008 and 0.006
Total related substances ([3]; 1M/40 ± 2° C./75 ± 5% RH): 0.173 and 0.182 and 0.160
4-Hydroxy alitretinoin impurity ([3]; 2M/40 ± 2° C./75 ± 5% RH): 0.003 and 0.002 and 0.004
4-Oxo-alitretinoin impurity ([3]; 2M/40 ± 2° C./75 ± 5% RH): 0.003 and 0.002
5,6-Epoxy alitretinoin impurity ([3]; 2M/40 ± 2° C./75 ± 5% RH): 0.010 and 0.008 and 0.007
Total related substances ([3]; 2M/40 ± 2° C./75 ± 5% RH): 0.191 and 0.192 and 0.180
4-Hydroxy alitretinoin impurity ([3]; 3M/40 ± 2° C./75 ± 5% RH): 0.003 and 0.002
4-Oxo-alitretinoin impurity ([3]; 3M/40 ± 2° C./75 ± 5% RH): 0.003 and 0.004
5,6-Epoxy alitretinoin impurity ([3]; 3M/40 ± 2° C./75 ± 5% RH): 0.008 and 0.010 and 0.006
Total related substances ([3]; 3M/40 ± 2° C./75 ± 5% RH): 0.192 and 0.205 and 0.177
4-Hydroxy alitretinoin impurity ([3]; 6M/40 ± 2° C./75 ± 5% RH): 0.002
4-Oxo-alitretinoin impurity ([3]; 6M/40 ± 2° C./75 ± 5% RH): 0.003 and 0.004
5,6-Epoxy alitretinoin impurity ([3]; 6M/40 ± 2° C./75 ± 5% RH): 0.006 and 0.007
Total related substances ([3]; 6M/40 ± 2° C./75 ± 5% RH): 0.175 and 0.188 and 0.167
Change in oxidative impurities on storage ([3]; 40±2° C./75±5% RH (Table 3), in the presence of an oxygen absorber and a silica gel desiccant): no increase in oxidative impurities
4-Hydroxy alitretinoin impurity ([3]; Initial): 0.002
4-Oxo-alitretinoin impurity ([3]; Initial): 0.002 and 0.003
5,6-Epoxy alitretinoin impurity ([3]; Initial): 0.006 and 0.009
Total related substances ([3]; Initial): 0.165 and 0.189 and 0.173
Total related substances [4]: 0.403 and 0.411 and 0.351
SMILES: CC1=C(/C=C/C(C)=C\C=C\C(C)=C\C(=O)O)C(C)(C)CCC1 [Alitretinoin, (2E,4E,6Z,8E)-3,7-dimethyl-9-(2,6,6-trimethyl-1-cyclohexenyl)-2,4,6,8-nonatraenoic acid]
Decomposition [1]: decomposition was extensive
